Measured values reported in US5306808A, “Peptide derivatives having vasodilating activity” (Takeda Chemical Industries, Ltd., priority 1991, dated 1994).
Where a SMILES comes first, the peptide text is derived from it. Bridges are numbered along the chain shown (N, C = ends). Where no end group is shown, it is not given here.

Tests used:
[1] = tested on: endothelin receptor; experiment: Assay of affinity for receptor (I125-ET-1 binding to porcine myocardial membrane fraction); conditions: ET-1 = 100
Experimental: A membrane fraction prepared from the porcine heart was diluted to 0.15 mg/ml by using a buffer solution [PBS (pH 7.4) containing 0.5 mM CaCl2, 1.0 mM MgCl2, 0.02% NaN3, 0.1% BSA (fraction V, Sigma), 0.1 mM PMSF and 0.1 μg/ml pepstatin (binding buffer)] for assay, and 100 μl of the resulting suspension of the membrane fraction was poured into each assay tube to use for assay. To this suspension of the membrane fraction were added 2 μl of an endothelin-1 solution labeled with 5 μM radioactive iodine. Further, 3 μl of a test peptide solution was added thereto, followed by maintenance at a temperature of 25° C. for 1 hour. Then, the resulting suspension was diluted with 900 μl of the buffer solution for assay cooled with ice, and thereafter separated into a supernatant and a precipitate by centrifugation at 12,000×g for 10 minutes. Cell membranes and an endothelin receptor embedded therein were contained in the precipitate, and radioactive iodine-labeled endothelin combined with the receptor was also recovered in the precipitate. Accordingly, the amount of radioactive iodine-labeled endothelin combined with the endothelin receptor was determined by measuring the amount of radioactive iodine contained in the precipitate with a gamma-ray counter. Compounds in which the affinity for the endothelin receptor is high and the maximum constriction is not high are antagonists. Contrary to this, compounds in which the affinity for the endothelin receptor is high and the maximum constriction is high are agonists.

[2] = tested on: porcine coronary artery; assay type: cell-based; conditions: for Constrictor activity (Relative potency): ET-1 = 100; for Maximum Constriction (% 60 mM KCl): normalized to constriction response to 60 mM KCl
Experimental: Each of helical strips 2 mm×15 mm prepared from the coronary right ramus circumflexus from which the adventitial connective tissues and the endothelial cells were removed was set to each of 4 ml organ baths. Its tension was detected by a force displacement transducer UL-10GR (Minebea), and recorded by a polygraph (NEC Sanei). The organ baths were maintained at 37° C., and filled with a Krebs-Henseleit solution (composition:118 mM NaCl, 4.7 mM KCl, 2.5 mM CaCl2, 1.2 mM KH2 PO4, 25.0 mM NaHCO3, 1.2 mM MgSO4, 10.0 mM glucose) gassed with 95% O2 and 5% CO2.
A tension of 1.25 to 1.5 g was applied to each of the strips, followed by equilibration for 1.5 hours. 60 mM KCl was repeatedly applied thereto at intervals of 30 minutes until the constriction response became constant. After additional equilibration for 1.5 hours, a sample for assay was given. The constriction of the strips was normalized by the constriction response of the individual strips to 60 mM KCl and statistically processed.
(2) As to the antagonist property or the agonist property of the peptide derivatives of present invention to endothelin, the affinity for an endothelin receptor and the constrictor activity to porcine coronary smooth muscles (according to the method described in (1) described above) were assayed. The affinity for the receptor was assayed by the following method.

Receptor binding activity (Relative potency) [1] | Compound | Constrictor activity (Relative potency) [2] | Maximum Constriction (% 60 mM KCl) [2] [% 60 mM KCl] | EC50 ([2]; read-out: EC50 (% KCL), concentration which induces 50% of the constriction due to 60 mM KCl) [nM]
2.5 | CC[C@H](C)[C@H](NC(=O)[C@H](CC(=O)O)NC(=O)[C@H](CC(C)C)NC(=O)[C@H](Cc1c[nH]cn1)NC(=O)[C@@H]1CSSC[C@H](N)C(=O)N[C@@H](CO)C(=O)N[C@@H](Cc2c[nH]c3ccccc23)C(=O)N[C@@H](CO)C(=O)N[C@@H](CO)C(=O)N[C@@H](CC(C)C)C(=O)N[C@@H](CCSC)C(=O)N[C@@H](CC(=O)O)C(=O)N[C@@H](CCCCN)C(=O)N[C@@H](CCC(=O)O)C(=O)N[C@@H](C)C(=O)N[C@@H](C(C)C)C(=O)N[C@@H](Cc2ccc(O)cc2)C(=O)N[C@@H](Cc2ccccc2)C(=O)N1)C(=O)N[C@H](C(=O)N[C@@H](Cc1c[nH]c2ccccc12)C(=O)O)[C@@H](C)CC [Example 13, [Trp^3, Ala^11]-ET-1] (H-CSWSSLMDKEAVYFCHLDIIW-OH; disulfide 1-15) | < 0.1 | 6 | 
9.1 | [Asn^18 ]-ET-1 (CSCSSLMDKECVYFCHLNIIW; ends and bridges not checked; cysteine pairing not given here; UniProt P05305 53-73, looked up, variant D18N) [Example 35] | < 0.1 | 43 | 
1.59 | CC[C@H](C)[C@H](NC(=O)[C@H](C)NC(=O)[C@H](CC(C)C)NC(=O)[C@H](Cc1c[nH]cn1)NC(=O)[C@@H]1CSSC[C@H](N)C(=O)N[C@@H](CO)C(=O)N[C@@H](C)C(=O)N[C@@H](CO)C(=O)N[C@@H](CO)C(=O)N[C@@H](CC(C)C)C(=O)N[C@@H](CCSC)C(=O)N[C@@H](CC(=O)O)C(=O)N[C@@H](CCCCN)C(=O)N[C@@H](CCC(=O)O)C(=O)N[C@@H](C)C(=O)N[C@@H](C(C)C)C(=O)N[C@@H](Cc2ccc(O)cc2)C(=O)N[C@@H](Cc2ccccc2)C(=O)N1)C(=O)N[C@H](C(=O)N[C@@H](Cc1c[nH]c2ccccc12)C(=O)O)[C@@H](C)CC [Example 21, [Ala^3,11,18]-ET-1] (H-CSASSLMDKEAVYFCHLAIIW-OH; disulfide 1-15) | < 0.1 | 6 | 
4.5 | [Val^3,Ala^11 ]-ET-1 (CSVSSLMDKEAVYFCHLDIIW; ends and bridges not checked; cysteine pairing not given here; UniProt P05305 53-73, looked up, variant C3V C11A) [Example 41] | 73 | 130 | 
20.9 | CC[C@H](C)[C@H](NC(=O)[C@H](CO)NC(=O)[C@H](CC(C)C)NC(=O)[C@H](Cc1c[nH]cn1)NC(=O)[C@@H]1CSSC[C@H](N)C(=O)N[C@@H](CO)C(=O)N[C@H]2CSSC[C@H](NC(=O)[C@H](CCC(=O)O)NC(=O)[C@H](CCCCN)NC(=O)[C@H](CC(=O)O)NC(=O)[C@H](CCSC)NC(=O)[C@H](CC(C)C)NC(=O)[C@H](CO)NC(=O)[C@H](CO)NC2=O)C(=O)N[C@@H](C(C)C)C(=O)N[C@@H](Cc2ccc(O)cc2)C(=O)N[C@@H](Cc2ccccc2)C(=O)N1)C(=O)N[C@H](C(=O)N[C@@H](Cc1c[nH]c2ccccc12)C(=O)O)[C@@H](C)CC [Example 34, [Ser^18]-ET-1] (H-CSCSSLMDKECVYFCHLSIIW-OH; disulfide 1-15, 3-11) | 18 | 79 | 
0.1 | CC[C@H](C)[C@H](NC(=O)[C@H](CC(=O)O)NC(=O)[C@H](CC(C)C)NC(=O)[C@H](Cc1c[nH]cn1)NC(=O)[C@@H]1CSSC[C@H](N)C(=O)N[C@@H](CO)C(=O)N[C@@H](CC(C)C)C(=O)N[C@@H](CO)C(=O)N[C@@H](CO)C(=O)N[C@@H](CC(C)C)C(=O)N[C@@H](CCSC)C(=O)N[C@@H](CC(=O)O)C(=O)N[C@@H](CCCCN)C(=O)N[C@@H](CCC(=O)O)C(=O)N[C@@H](CC(C)C)C(=O)N[C@@H](C(C)C)C(=O)N[C@@H](Cc2ccc(O)cc2)C(=O)N[C@@H](Cc2ccccc2)C(=O)N1)C(=O)N[C@H](C(=O)N[C@@H](Cc1c[nH]c2ccccc12)C(=O)O)[C@@H](C)CC [Example 38, [Leu^3,11]-ET-1] (H-CSLSSLMDKELVYFCHLDIIW-OH; disulfide 1-15) | < 0.1 | 10 | 
3.2 | CC[C@H](C)[C@H](NC(=O)[C@H](CC(C)C)NC(=O)[C@H](Cc1c[nH]cn1)NC(=O)[C@@H]1CSSC[C@H](N)C(=O)N[C@@H](CO)C(=O)N[C@H]2CSSC[C@H](NC(=O)[C@H](CCC(=O)O)NC(=O)[C@H](CCCCN)NC(=O)[C@H](CC(=O)O)NC(=O)[C@H](CCSC)NC(=O)[C@H](CC(C)C)NC(=O)[C@H](CO)NC(=O)[C@H](CO)NC2=O)C(=O)N[C@@H](C(C)C)C(=O)N[C@@H](Cc2ccc(O)cc2)C(=O)N[C@@H](Cc2ccccc2)C(=O)N1)C(=O)N[C@H](C(=O)N[C@H](C(=O)N[C@@H](Cc1c[nH]c2ccccc12)C(=O)O)[C@@H](C)CC)[C@@H](C)CC [Example 43, [Ile^18]-ET-1] (H-CSCSSLMDKECVYFCHLIIIW-OH; disulfide 1-15, 3-11) | < 0.1 | 0 | 
2.4 | CC[C@H](C)[C@H](NC(=O)[C@H](Cc1ccccc1)NC(=O)[C@H](CC(C)C)NC(=O)[C@H](Cc1c[nH]cn1)NC(=O)[C@@H]1CSSC[C@H](N)C(=O)N[C@@H](CO)C(=O)N[C@H]2CSSC[C@H](NC(=O)[C@H](CCC(=O)O)NC(=O)[C@H](CCCCN)NC(=O)[C@H](CC(=O)O)NC(=O)[C@H](CCSC)NC(=O)[C@H](CC(C)C)NC(=O)[C@H](CO)NC(=O)[C@H](CO)NC2=O)C(=O)N[C@@H](C(C)C)C(=O)N[C@@H](Cc2ccc(O)cc2)C(=O)N[C@@H](Cc2ccccc2)C(=O)N1)C(=O)N[C@H](C(=O)N[C@@H](Cc1c[nH]c2ccccc12)C(=O)O)[C@@H](C)CC [Example 33, [Phe^18]-ET-1] (H-CSCSSLMDKECVYFCHLFIIW-OH; disulfide 1-15, 3-11) | < 0.1 | 0 | 
3.2 | CC[C@H](C)[C@H](NC(=O)[C@H](CCC(=O)O)NC(=O)[C@H](CC(C)C)NC(=O)[C@H](Cc1c[nH]cn1)NC(=O)[C@@H]1CSSC[C@H](N)C(=O)N[C@@H](CO)C(=O)N[C@H]2CSSC[C@H](NC(=O)[C@H](CCC(=O)O)NC(=O)[C@H](CCCCN)NC(=O)[C@H](CC(=O)O)NC(=O)[C@H](CCSC)NC(=O)[C@H](CC(C)C)NC(=O)[C@H](CO)NC(=O)[C@H](CO)NC2=O)C(=O)N[C@@H](C(C)C)C(=O)N[C@@H](Cc2ccc(O)cc2)C(=O)N[C@@H](Cc2ccccc2)C(=O)N1)C(=O)N[C@H](C(=O)N[C@@H](Cc1c[nH]c2ccccc12)C(=O)O)[C@@H](C)CC [Example 46, [Glu^18]-ET-1] (H-CSCSSLMDKECVYFCHLEIIW-OH; disulfide 1-15, 3-11) | < 0.1 | 6 | 
 | CC[C@H](C)[C@H](NC(=O)[C@H](CC(=O)O)NC(=O)[C@H](CC(C)C)NC(=O)[C@H](Cc1c[nH]cn1)NC(=O)[C@@H]1CSSC[C@H](N)C(=O)N[C@@H](CO)C(=O)N[C@H]2CSSC[C@H](NC(=O)[C@H](CCC(=O)O)NC(=O)[C@H](CCCCN)NC(=O)[C@H](CC(=O)O)NC(=O)[C@H](CCSC)NC(=O)[C@H](CC(C)C)NC(=O)[C@H](CO)NC(=O)[C@H](CO)NC2=O)C(=O)N[C@@H](C(C)C)C(=O)N[C@@H](Cc2ccc(O)cc2)C(=O)N[C@@H](Cc2ccccc2)C(=O)N1)C(=O)N[C@H](C(=O)N[C@@H](Cc1c[nH]c2ccccc12)C(=O)O)[C@@H](C)CC [ET-1, endothelin-1, reference compound] |  |  | 1.6
